Key:
[1] = target: T1, Solute carrier organic anion transporter family member 1A2 (OATP1A2) (Homo sapiens, UniProt P46721); assay: (§1) TP_TRANSPORTER: uptake in Xenopus laevis oocytes; type: functional, cell-based, Oocyte; details: Xenopus laevis oocytes expressing the transporter
T1 sequence (P46721 whole entry): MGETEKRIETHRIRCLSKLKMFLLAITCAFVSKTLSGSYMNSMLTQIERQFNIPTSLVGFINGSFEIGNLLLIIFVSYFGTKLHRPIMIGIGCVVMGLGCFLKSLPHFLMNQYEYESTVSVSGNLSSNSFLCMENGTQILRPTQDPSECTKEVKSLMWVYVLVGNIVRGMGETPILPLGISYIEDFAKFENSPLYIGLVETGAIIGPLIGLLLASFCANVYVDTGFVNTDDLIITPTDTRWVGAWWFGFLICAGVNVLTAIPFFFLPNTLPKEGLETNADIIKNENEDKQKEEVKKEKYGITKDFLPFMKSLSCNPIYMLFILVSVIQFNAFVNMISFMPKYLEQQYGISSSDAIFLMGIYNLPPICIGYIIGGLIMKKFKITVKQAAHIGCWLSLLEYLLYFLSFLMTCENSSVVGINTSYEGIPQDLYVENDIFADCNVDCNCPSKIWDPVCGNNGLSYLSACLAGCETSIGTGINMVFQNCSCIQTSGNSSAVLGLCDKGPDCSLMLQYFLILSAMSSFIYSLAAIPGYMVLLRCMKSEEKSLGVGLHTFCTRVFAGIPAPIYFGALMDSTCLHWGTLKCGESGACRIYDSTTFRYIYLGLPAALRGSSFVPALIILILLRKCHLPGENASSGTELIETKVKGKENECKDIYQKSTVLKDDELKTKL

[2] = target: T2, Solute carrier organic anion transporter family member 1A2 (Homo sapiens, UniProt P46721); assay: TP_TRANSPORTER: inhibition of Deltorphin II uptake (Deltorphin II: 50 uM, DPDPE: 500 uM) in Xenopus laevis oocytes; type: functional, cell-based; details: oocyte
T2 sequence (P46721 whole entry): T1 sequence (P46721 whole entry)

[3] = target: T2, Solute carrier organic anion transporter family member 1A2; assay: TP_TRANSPORTER: inhibition of Deltorphin II uptake (Deltorphin II: 50 uM, DAMGO: 200 uM) in Xenopus laevis oocytes; type: functional, cell-based; details: oocyte
[4] = target: T3, Solute carrier organic anion transporter family member 1A4 (Rattus norvegicus, UniProt O35913); assay: as §1; type: functional, cell-based; details: oocyte
T3 sequence (O35913 whole entry): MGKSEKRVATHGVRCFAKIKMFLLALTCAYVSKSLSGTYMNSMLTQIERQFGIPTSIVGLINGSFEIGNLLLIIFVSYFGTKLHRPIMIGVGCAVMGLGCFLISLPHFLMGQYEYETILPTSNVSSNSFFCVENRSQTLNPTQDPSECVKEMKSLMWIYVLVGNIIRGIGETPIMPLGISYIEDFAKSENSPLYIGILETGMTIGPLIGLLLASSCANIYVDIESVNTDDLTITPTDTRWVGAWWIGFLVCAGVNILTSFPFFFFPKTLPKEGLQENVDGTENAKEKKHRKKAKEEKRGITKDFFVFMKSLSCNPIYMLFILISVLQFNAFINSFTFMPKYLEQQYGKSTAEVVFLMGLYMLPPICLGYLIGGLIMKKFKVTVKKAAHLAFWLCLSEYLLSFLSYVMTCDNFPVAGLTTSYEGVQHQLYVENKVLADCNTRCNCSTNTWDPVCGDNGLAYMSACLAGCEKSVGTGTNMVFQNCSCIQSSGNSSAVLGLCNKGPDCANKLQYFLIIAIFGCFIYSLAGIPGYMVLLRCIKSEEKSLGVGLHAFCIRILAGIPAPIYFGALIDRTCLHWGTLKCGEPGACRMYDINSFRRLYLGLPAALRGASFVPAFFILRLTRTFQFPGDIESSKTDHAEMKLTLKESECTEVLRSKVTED

[5] = target: T2, Solute carrier organic anion transporter family member 1A2; assay: TP_TRANSPORTER: inhibition of Deltorphin II uptake (Deltorphin II: 50 uM, E1S: 150 uM) in Xenopus laevis oocytes; type: functional, cell-based; details: oocyte
[6] = target: T2, Solute carrier organic anion transporter family member 1A2; assay: TP_TRANSPORTER: inhibition of Deltorphin II uptake (Deltorphin II: 50 uM, Naloxone: 1500 uM) in Xenopus laevis oocytes; type: functional, cell-based; details: oocyte
[7] = target: T2, Solute carrier organic anion transporter family member 1A2; assay: TP_TRANSPORTER: inhibition of Deltorphin II uptake (Deltorphin II: 50 uM, Naltrindole: 1500 uM) in Xenopus laevis oocytes; type: functional, cell-based; details: oocyte
[8] = substrate: CC(C)[C@H](NC(=O)[C@H](CCC(=O)O)NC(=O)[C@H](Cc1ccccc1)NC(=O)[C@@H](C)NC(=O)[C@@H](N)Cc1ccc(O)cc1)C(=O)N[C@H](C(=O)NCC(N)=O)C(C)C; assay: as §1; type: functional, cell-based, Oocyte
[9] = substrate: CC1(C)SSC(C)(C)[C@@H](NC(=O)[C@@H](N)Cc2ccc(O)cc2)C(=O)NCC(=O)N[C@@H](Cc2ccccc2)C(=O)N[C@H]1C(=O)O; assay: as §1; type: functional, cell-based, Oocyte

CC1(C)SSC(C)(C)[C@@H](NC(=O)[C@@H](N)Cc2ccc(O)cc2)C(=O)NCC(=O)N[C@@H](Cc2ccccc2)C(=O)N[C@H]1C(=O)O
Km [1]: 202 µM | Activity [2]: inhibitor [(at a rough estimate) 50 % of control]

C[C@@H](NC(=O)[C@@H](N)Cc1ccc(O)cc1)C(=O)NCC(=O)N(C)[C@@H](Cc1ccccc1)C(=O)NCCO [DAMGO]
Activity [3]: inhibitor [(at a rough estimate) 50 % of control]

CC(C)[C@H](NC(=O)[C@H](CCC(=O)O)NC(=O)[C@H](Cc1ccccc1)NC(=O)[C@@H](C)NC(=O)[C@@H](N)Cc1ccc(O)cc1)C(=O)N[C@H](C(=O)NCC(N)=O)C(C)C [DELTORPHIN II]
Activity [4]: is not a substrate [-] | Km [1]: 330 µM

C[C@]12CC[C@@H]3c4ccc(OS(=O)(=O)O)cc4CC[C@H]3[C@@H]1CCC2=O [ESTRONE SULFURIC ACID]
Activity [5]: inhibitor [(at a rough estimate) 10 % of control]

C=CCN1CC[C@]23c4c5ccc(O)c4O[C@H]2C(=O)CC[C@@]3(O)[C@H]1C5 [NALOXONE]
Activity [6]: inhibitor [(at a rough estimate) 20 % of control]

Oc1ccc2c3c1O[C@H]1c4[nH]c5ccccc5c4C[C@@]4(O)[C@@H](C2)N(CC2CC2)CC[C@]314 [NALTRINDOLE]
Activity [7]: inhibitor [(at a rough estimate) 10 % of control]

B1: Solute carrier organic anion transporter family member 1A1 (Rattus norvegicus) (protein)
chain: MEETEKKIATQEGRLFSKMKVFLLSLTCACLTKSLSGVYMNSMLTQIERQFDISTSVAGLINGSFEIGNLFFIVFVSYFGTKLHRPVVIGIGCVIMGLGCLLMSLPHFFMGRYEYETTISPTGNLSSNSFLCMENRTQTLKPTQDPAECVKEMKSLMWICVMVGNIIRGIGETPIVPLGISYIEDFAKSENSPLYIGILEMGKVAGPIFGLLLGSYCAQIYVDIGSVNTDDLTITPSDTRWVGAWWIGFLVCAGVNILTSIPFFFLPKALPKKGQQENVAVTKDGKVEKYGGQAREENLGITKDFLTFMKRLFCNPIYMLFILTSVLQVNGFINKFTFLPKYLEQQYGKSTAEAIFLIGVYSLPPICLGYLIGGFIMKKFKITVKKAAYLAFCLSVFEYLLFLCHFMLTCDNAAVAGLTTSYKGVQHQLHVESKVLADCNTRCSCSTNTWDPVCGDNGVAYMSACLAGCKKFVGTGTNMVFQDCSCIQSLGNSSAVLGLCKKGPECANRLQYFLILTIIISFIYSLTAIPGYMVFLRCVKSEEKSLGVGLHTFCIRVFAGIPAPVYFGALIDRTCLHWGTLKCGQRGACRMYDINSFRHIYLGLPIALRGSSYLPAFFILILMRKFQFPGDIDSSATDHTEMMLGEKESEHTDVHGSPQVENDGELKTKL
Km [8]: 137 µM | Km [9]: 48 µM

B2: Solute carrier organic anion transporter family member 1A4 (Rattus norvegicus) (protein)
chain: T3 sequence (O35913 whole entry)
Km [9]: 19 µM

From ChEMBL document CHEMBL2073971, “Organic anion-transporting polypeptides mediate transport of opioid peptides across blood-brain barrier” (J Pharmacol Exp Ther, 2000)
